# Laboratory results from patent US20240131180A1, “DRUG ANTIBODY CONJUGATES” (PHARMA MAR, S.A., priority 2020, published 2024).
# pIC50: −log10 of the molar value. Several values for one entry are separate records, joined by “and”; a condition that tells them apart may be missing. Equal values may be shown once. Read-outs that look alike come from different tables or passages of the source.
# Tests used:
# MDA-MB-231 [1] = experiment: SRB colorimetric assay of cell growth and viability, MDA-MB-231; type: cell-based; conditions: for LC50 / GI50: Homo sapiens; for LC50: MDA-MB-231, 72 h, read-out: LC50 MDA-MB-231; for GI50: MDA-MB-231, NCI algorithm; for GI50 / TGI MDA-MB-231: 72 hours treatment, SRB; for TGI MDA-MB-231: total cell growth inhibition
# From the text: (§1) Using the mean±SD of triplicate cultures, a dose-response curve was automatically generated using nonlinear regression analysis.
# A549 = experiment: SRB colorimetric assay of cell growth and viability, A549; type: cell-based; conditions: for CC50 / GI50: Homo sapiens; for CC50: A549, 72 h, read-out: LC50 A549; for GI50: A549, NCI algorithm; for GI50 / TGI A549: 72 hours treatment, SRB; for TGI A549: total cell growth inhibition
# From the text: as §1
# MDA-MB-231 [2] = experiment: SRB cytotoxicity assay, MDA-MB-231 (HER2-); type: cell-based; conditions: Homo sapiens, MDA-MB-231, 72 h, read-out: IC50 MDA-MB-231
# Description: (§2) For SK-BR-3, HCC-1954, MDA-MB-231 and MCF-7 cells, a colorimetric assay using Sulforhodamine B (SRB) was adapted for quantitative measurement of cell growth and cytotoxicity, as described in V. Vichai and K. Kirtikara. Sulforhodamine B colorimetric assay for cytotoxicity screening. Nature Protocols, 2006, 1, 1112-1116. Briefly, cells were seeded in 96-well microtiter plates and allowed to stand for 24 hours in drug-free medium before treatment with vehicle alone or with the tested substances for 72 hours.
# (§3) Cell survival was expressed as percentage of control, untreated cell survival.
# SK-BR-3 = experiment: SRB cytotoxicity assay, SK-BR-3 (HER2+); type: cell-based; conditions: Homo sapiens, SK-BR-3, 72 h, read-out: IC50 SK-BR-3
# Description: as §2, §3
# HT29 = experiment: SRB colorimetric assay of cell growth and viability, HT29; type: cell-based; conditions: for CC50 / GI50: Homo sapiens; for CC50: HT-29, 72 h, read-out: LC50 HT29; for GI50: HT-29, NCI algorithm; for GI50 / TGI HT29: 72 hours treatment, SRB; for TGI HT29: total cell growth inhibition
# From the text: as §1
# [3] = tested on: SK-BR-3, HCC-1954, MDA-MB-231 and MCF-7 cells; experiment: cells; type: cell-based; conditions: Homo sapiens, 72 h
# Description: as §2, §3
# PSN1 = experiment: SRB colorimetric assay of cell growth and viability, PSN1; type: cell-based; conditions: for LC50 / GI50: Homo sapiens; for LC50: PSN1, 72 h, read-out: LC50 PSN1; for GI50: PSN1, NCI algorithm; for GI50 / TGI PSN1: 72 hours treatment, SRB; for TGI PSN1: total cell growth inhibition
# From the text: as §1
# HCC-1954 = experiment: SRB cytotoxicity assay, HCC-1954 (HER2+); type: cell-based; conditions: Homo sapiens, HCC1954, 72 h, read-out: IC50 HCC-1954
# Description: as §2, §3
# MCF-7 = experiment: SRB cytotoxicity assay, MCF-7 (HER2-); type: cell-based; conditions: Homo sapiens, MCF7, 72 h, read-out: IC50 MCF-7
# Description: as §2, §3
# Lewis lung carcinoma = conditions: very low concentrations; cited from earlier work
# B16 melanoma = conditions: very low concentrations; cited from earlier work
# P388 lymphoma = conditions: very low concentrations; cited from earlier work
# [4] = read-out: geometric mean IC50 value across the whole cell panel
SMILES,LC50 (MDA-MB-231 [1]),GI50 (MDA-MB-231 [1]),TGI MDA-MB-231 (MDA-MB-231 [1]),CC50 (A549),GI50 (A549),TGI A549 (A549),CC50 (HT29),GI50 (HT29),TGI HT29 (HT29),LC50 (PSN1),GI50 (PSN1),TGI PSN1 (PSN1),also measured
COc1ccc2[nH]c3c(c2c1)CCN[C@]31CS[C@@H]2c3c(OC(C)=O)c(C)c4c(c3[C@H](COC1=O)N1[C@@H]2[C@@H]2N[C@@H](Cc3cc(C)c(OC)c(O)c32)[C@@H]1O)OCO4 [Compound 1],2.46 nM,0.752 nM,1.30E−09 Molar,7.78 nM,1.82 nM,3.37E−09 Molar,> 130 nM,1.28 nM,1.43E−09 Molar,2.34 nM,1.22 nM,1.69E−09 Molar,"IC50 (MDA-MB-231 [2]): 0.00068 µg/mL and 0.882 nM; IC50 (SK-BR-3): 0.00086 µg/mL and 1.12 nM; pIC50 ([3]; read-out: IC50 values in all the tumor cell lines (range)): 8.71 to 9.05; pIC50 [3, 4]: 8.88; IC50 (HCC-1954): 0.0015 µg/mL and 1.95 nM; IC50 (MCF-7): 0.0012 µg/mL and 1.56 nM"
COc1ccc2[nH]c3c(c2c1)CCN[C@]31CS[C@@H]2c3c(OC(C)=O)c(C)c4c(c3[C@H](COC1=O)N1[C@@H]2[C@@H]2N[C@@H](Cc3cc(C)c(OC)c(O)c32)[C@@H]1C#N)OCO4 [Compound 2],5.77 nM,5 nM,5.26E−09 Molar,> 1280 nM,12.8 nM,1.28E−08 Molar,≥ 1280 nM,5.13 nM,5.64E−09 Molar,5 nM,2.05 nM,3.08E−09 Molar,"IC50 (MDA-MB-231 [2]): 0.00069 µg/mL and 0.885 nM; IC50 (SK-BR-3): 0.00096 µg/mL and 1.23 nM; pIC50 [3, 4]: 8.82; IC50 (HCC-1954): 0.0018 µg/mL and 2.31 nM; IC50 (MCF-7): 0.0017 µg/mL and 2.18 nM"
COc1ccc2[nH]c3c(c2c1)C[C@H](CO)N[C@]31CS[C@@H]2c3c(OC(C)=O)c(C)c4c(c3[C@H](COC1=O)N1[C@@H]2[C@@H]2N[C@@H](Cc3cc(C)c(OC)c(O)c32)[C@@H]1C#N)OCO4 [Compound 10-R],3.09 nM,0.679 nM,1.21E−09 Molar,> 123 nM,4.32 nM,1.20E−08 Molar,> 123 nM,0.864 nM,1.61E−09 Molar,> 123 nM,0.753 nM,1.48E−09 Molar,–
COc1ccc2[nH]c3c(c2c1)C[C@H](CO)N[C@]31CS[C@@H]2c3c(OC(C)=O)c(C)c4c(c3[C@H](COC1=O)N1[C@@H]2[C@@H]2N[C@@H](Cc3cc(C)c(OC)c(O)c32)[C@@H]1O)OCO4 [Compound 11-R],7.24 nM,1.62 nM,2.87E−09 Molar,> 125 nM,15 nM,4.50E−08 Molar,> 125 nM,2 nM,3.62E−09 Molar,15 nM,2.12 nM,3.62E−09 Molar,–
COc1c(C)cc2c(c1O)[C@H]1N[C@@H](C2)[C@H](C#N)N2[C@H]1[C@@H]1SC[C@]3(NCCc4c3oc3ccccc43)C(=O)OC[C@H]2c2c3c(c(C)c(OC(C)=O)c21)OCO3 [Compound 14],29.3 nM,6.66 nM,1.13E−08 Molar,> 133 nM,8.79 nM,1.73E−08 Molar,> 133 nM,8.52 nM,9.19E−09 Molar,22.6 nM,9.72 nM,1.33E−08 Molar,–
COc1c(C)cc2c(c1O)[C@H]1N[C@@H](C2)[C@H](O)N2[C@H]1[C@@H]1SC[C@]3(NCCc4c3oc3ccccc43)C(=O)OC[C@H]2c2c3c(c(C)c(OC(C)=O)c21)OCO3 [Compound 15],24.3 nM,7.14 nM,1.16E−08 Molar,> 135 nM,12.1 nM,2.56E−08 Molar,> 135 nM,8.76 nM,9.57E−09 Molar,45.8 nM,9.98 nM,1.48E−08 Molar,–
"COc1c(C)cc2c(c1O)[C@H]1N[C@@H](C2)[C@H](O)N2[C@H]1[C@@H]1SC[C@]3(NCCc4c3[nH]c3ccccc43)C(=O)OC[C@H]2c2c3c(c(C)c(OC(C)=O)c21)OCO3 [ET-722, Ecteinascidin 722]",2.56 nM,0.891 nM,1.48E−09 Molar,> 135 nM,1.35 nM,1.35E−09 Molar,> 135 nM,1.35 nM,1.48E−09 Molar,3.1 nM,1.48 nM,2.16E−09 Molar,protection of mice in vivo against Lewis lung carcinoma (Lewis lung carcinoma): protects mice in vivo at very low concentrations; protection of mice in vivo against B16 melanoma (B16 melanoma): protects mice in vivo at very low concentrations; protection of mice in vivo against P388 lymphoma (P388 lymphoma): protects mice in vivo at very low concentrations
